Patent US4971983A, “Substituted 2-aminobenzothiazoles and derivatives useful as cerebrovascular agents” (Warner-Lambert Company, priority 1989, dated 1990)
Where two headings read alike, the source gives them in different places.

What was measured:
[1] = system: rats; experiment: Anesthesia in rats after dosing (impaired consciousness, lack of righting reflex; duration); type: in vivo, Adult male Fisher (F-344) rats; details: time from administration to regaining consciousness
Excerpt: The duration of anesthesia is that time elapsed between administration of the test substance and the test animal regaining consciousness.

[2] = system: MCAO rats; experiment: Combined Middle Cerebral and Ipsilateral Common Carotid Occlusion in the Rat (MCAO): collateral zone and hemispheric infarct; type: in vivo, Adult male Fisher (F-344) rats; details: for response vs control in vivo at 3 mg/kg: 3 mg/kg IP; for response vs control in vivo at 15 mg/kg: 15 mg/kg IP
Excerpt: Occlusion of the proximal part of the middle cerebral artery (MCA) is a common cause of stroke in man and can be accomplished surgically in experimental animals. […] We have combined distal MCA occlusion with ipsilateral common carotid ligation in an attempt to produce reproducible,focal cerebral ischemic infarcts.
The skin on the ventral side of the neck and the left temporal-parietal region was shaved. An incision was made in the neck and the left common carotid artery was doubly ligated and cut between the sutures. The incision was closed with 4-0 silk. Another incision was then made behind the left eye and the skin was held back with retractors. The exposed temporalis muscle was electrocauterized (Jarit Bipolar Coagulator) and partially removed. The upper part of the lower jaw bone was also removed. Deep surgery was performed with the aid of a Zeiss OPMI 99 surgical microscope. A 1 to 2-mm diameter craniotomy was made about 1 mm anterior to where the rostral end of the zygoma fuses to the squamosal bone. To prevent the drill from going through the dura, the burr hole was not drilled completely through the skull. Bone remaining after drilling was removed with forceps. The dura was pierced and reflected with a fine probe.
At this point the rat was injected with 0.3 ml of 2% Evans blue dye in saline via the tail vein. Evans blue binds to serum albumin and will not pass the blood-brain barrier unless damage has occurred, such as damage induced by ischemia. A small hook was then positioned under the MCA and the MCA was lifted away from the cortex. A jeweler-type bipolar forceps was introduced and the MCA was electrocauterized and separated. Gelfoam was put over the craniotomy and the wound was closed with 4-0 silk. The rats were then taken off the halothane and were allowed to wake up. Total anesthesia time was typically 30 minutes.
On Day 2 following MCA occlusion, the rats were anesthetized with ketamine (150 mg/kg, IP) and sacrificed. Cerebral tissue fixation was initiated by perfusion of 10% neutralized, buffered formalin for five minutes. Brains were removed and stored in the fixative until analysis.
For evaluation of the extent of cerebral ischemic injury, the brains were cut coronally in three different locations. The first section was at the level where the MCA was ligated. The other two sections were 2 mm anterior and 2 mm posterior to the first. Using an ausJena Citoval microscope with a drawing tube and an Apple II plus computer with a Houston Instrument digitizing pad, a software routine to measure the area of the ischemic damage as indicated by the extent of Evans blue tissue extravasation was employed. The software package was purchased from R&M Biometrics (Nashville, Tenn.) and is titled Bioquant II. From the lesion areas (mm^2) obtained from the Bioquant II program, we estimated the hemispheric extent (mm^3) of ischemic damage between the anterior and posterior sections by computing and adding the volume of two truncated cones.
The Bioquant II image analysis system was used to quantitate ischemic injury as it was identified by Evans blue extravasation.

[3] = 30 min and 24 h after occlusion, historical controls, read-out: Collateral Zone Infarct (% of Control)
[4] = 30 min and 24 h after occlusion, historical controls, read-out: Hemispheric Infarct (% of Control)
[5] = 10 mg/kg IP, 30 min and 24 h after occlusion, historical controls, read-out: Collateral Zone Infarct (% of Control)
[6] = 10 mg/kg IP, 30 min and 24 h after occlusion, historical controls, read-out: Hemispheric Infarct (% of Control)
[7] = 30 mg/kg IP, 30 min and 24 h after occlusion, historical controls, read-out: Collateral Zone Infarct (% of Control)
[8] = 30 mg/kg IP, 30 min and 24 h after occlusion, historical controls, read-out: Hemispheric Infarct (% of Control)
[9] = ip, read-out: Collateral Zone Infarct (% of Control)
[10] = ip, read-out: Hemispheric Infarct (% of Control)

For `COc1cccc2sc(N)nc12` [Compound 13, 2-amino-4-methoxybenzothiazole], the “Anesthesia (duration)” value ([1]; 10 mg/kg IP) was greater than 5 h, the response vs control in vivo at 3 mg/kg [2, 3] was 85% and the response vs control in vivo at 3 mg/kg [2, 4] was 90%. The response vs control in vivo at 10 mg/kg [2, 5] was 115% and the response vs control in vivo at 10 mg/kg [2, 6] was 121%.

Compound `Nc1nc2c(ccc3ccccc32)s1` [Compound 20, 2-amino-naptho[1,2-d]thiazole] has a response vs control in vivo at 10 mg/kg [2, 5] of 63%, a response vs control in vivo at 10 mg/kg [2, 6] of 84% and a response vs control in vivo at 30 mg/kg [2, 7] of 81%. For the same compound, the response vs control in vivo at 30 mg/kg [2, 8] was 92%.

For `CSc1ccc2nc(N)sc2c1` [Compound 2, 2-amino-6-methylthiobenzothiazole], the response vs control in vivo at 10 mg/kg [2, 5] was 72%, the response vs control in vivo at 10 mg/kg [2, 6] was 88% and the response vs control in vivo at 30 mg/kg [2, 7] was 100%. The response vs control in vivo at 30 mg/kg [2, 8] was 106%.

Work on `Nc1nc2cc(C(F)(F)F)ccc2s1` [Compound 19, 2-amino-5-trifluoromethylbenzothiazole] yielded a response vs control in vivo at 10 mg/kg [2, 5] of 48%, a response vs control in vivo at 10 mg/kg [2, 6] of 63% and a response vs control in vivo at 30 mg/kg [2, 7] of 53%. It also gave a response vs control in vivo at 30 mg/kg [2, 8] of 79%.

Compound `CN1CCCC1CCNc1nc2ccccc2s1` (centres unmarked) [Compound 23, 2-[[2-(1-methyl-2-pyrrolidinyl)ethyl]amino]-benzothiazole] has a response vs control in vivo at 10 mg/kg [2, 5] of 66%, a response vs control in vivo at 10 mg/kg [2, 6] of 84% and a response vs control in vivo at 30 mg/kg [2, 7] of 18%. The response vs control in vivo at 30 mg/kg [2, 8] was 72%.

In the case of `Nc1nc2ccc(Br)cc2s1` [Compound 7, 2-amino-6-bromobenzothiazole], the “Anesthesia (duration)” value ([1]; 30 mg/kg IP) is reported as greater than 5 h, the response vs control in vivo at 10 mg/kg [2, 5] is reported as 69% and the response vs control in vivo at 10 mg/kg [2, 6] is reported as 88%. It also gave a response vs control in vivo at 30 mg/kg [2, 7] of 59% and a response vs control in vivo at 30 mg/kg [2, 8] of 68%.

In the case of `Nc1nc2ccc([N+](=O)[O-])cc2s1` [Compound 8, 2-amino-6-nitrobenzothiazole], the “Anesthesia (duration)” value ([1]; 30 mg/kg IP) is reported as 4 h, the response vs control in vivo at 10 mg/kg [2, 5] is reported as 92% and the response vs control in vivo at 10 mg/kg [2, 6] is reported as 93%. The response vs control in vivo at 30 mg/kg [2, 7] was 24% and the response vs control in vivo at 30 mg/kg [2, 8] was 62%.

`CCNc1nc2ccccc2s1` [Compound 21, 2-ethylaminobenzothiazole] gave a response vs control in vivo at 10 mg/kg [2, 5] of 62%, a response vs control in vivo at 10 mg/kg [2, 6] of 71% and a response vs control in vivo at 30 mg/kg [2, 7] of 116%. The response vs control in vivo at 30 mg/kg [2, 8] was 89%.

Work on `COc1ccc2sc(N)nc2c1` [Compound 18, 2-amino-5-methoxybenzothiazole] yielded a response vs control in vivo at 10 mg/kg [2, 9] of 124%, a response vs control in vivo at 30 mg/kg [2, 9] of 54% and a response vs control in vivo at 10 mg/kg [2, 10] of 117%. The response vs control in vivo at 30 mg/kg [2, 10] was 82%.

In the case of `Nc1nc2ccc(OC(F)(F)F)cc2s1` [Compound 9, 2-amino-6-trifluoromethoxybenzothiazole], the “Anesthesia (duration)” value ([1]; 30 mg/kg IP) is reported as 1 to 2 h, the response vs control in vivo at 3 mg/kg [2, 3] is reported as 117% and the response vs control in vivo at 3 mg/kg [2, 4] is reported as 99%. It also gave a response vs control in vivo at 10 mg/kg [2, 5] of 43%, a response vs control in vivo at 10 mg/kg [2, 6] of 66% and a response vs control in vivo at 15 mg/kg [2, 3] of 42%. It also gave a response vs control in vivo at 15 mg/kg [2, 4] of 82%, a response vs control in vivo at 30 mg/kg [2, 7] of 0% and a response vs control in vivo at 30 mg/kg [2, 8] of 44%.

`c1ccc(CNc2nc3ccccc3s2)cc1` [Compound 22, N-benzyl-2-benzothiazolamine] gave a response vs control in vivo at 10 mg/kg [2, 5] of 56%, a response vs control in vivo at 10 mg/kg [2, 6] of 76% and a response vs control in vivo at 30 mg/kg [2, 7] of 98%. The response vs control in vivo at 30 mg/kg [2, 8] was 89%.

Work on `CS(=O)(=O)c1ccc2nc(N)sc2c1` [Compound 4, 2-amino-6-methylsulphonylbenzothiazole] yielded a response vs control in vivo at 10 mg/kg [2, 5] of 77%, a response vs control in vivo at 10 mg/kg [2, 6] of 83% and a response vs control in vivo at 30 mg/kg [2, 7] of 58%. The response vs control in vivo at 30 mg/kg [2, 8] was 86%.

`Nc1nc2c(C(F)(F)F)cccc2s1` [Compound 16, 2-amino-4-trifluoromethylbenzothiazole] gave a response vs control in vivo at 10 mg/kg [2, 5] of 63%, a response vs control in vivo at 10 mg/kg [2, 6] of 99% and a response vs control in vivo at 30 mg/kg [2, 7] of 15%. For the same compound, the response vs control in vivo at 30 mg/kg [2, 8] was 61%.

Work on `Cc1cc(C)c2nc(N)sc2c1` [Compound 12, 2-amino-4,6-dimethylbenzothiazole] yielded a response vs control in vivo at 10 mg/kg [2, 5] of 91%, a response vs control in vivo at 10 mg/kg [2, 6] of 79% and a response vs control in vivo at 30 mg/kg [2, 7] of 68%. For the same compound, the response vs control in vivo at 30 mg/kg [2, 8] was 76%.

`Nc1nc2ccc(C(F)(F)F)cc2s1` [Compound 10, 2-amino-6-trifluoromethylbenzothiazole] gave a response vs control in vivo at 3 mg/kg [2, 3] of 156%, a response vs control in vivo at 3 mg/kg [2, 4] of 131% and a response vs control in vivo at 10 mg/kg [2, 5] of 51%. The response vs control in vivo at 10 mg/kg [2, 6] was 53%.

Work on `Nc1nc2c(F)cc(F)cc2s1` [Compound 17, 2-amino-4,6-difluorobenzothiazole] yielded a response vs control in vivo at 10 mg/kg [2, 5] of 137%, a response vs control in vivo at 10 mg/kg [2, 6] of 139% and a response vs control in vivo at 30 mg/kg [2, 7] of 105%. For the same compound, the response vs control in vivo at 30 mg/kg [2, 8] was 115%.

For `Cc1cccc2sc(N)nc12` [Compound 14, 2-amino-4-methylbenzothiazole], the response vs control in vivo at 10 mg/kg [2, 5] was 69%, the response vs control in vivo at 10 mg/kg [2, 6] was 72% and the response vs control in vivo at 30 mg/kg [2, 7] was 40%. It also gave a response vs control in vivo at 30 mg/kg [2, 8] of 54%.

Compound `CCOc1ccc2nc(N)sc2c1` [Compound 6, 2-amino-6-ethoxybenzothiazole] has a response vs control in vivo at 10 mg/kg [2, 5] of 94%, a response vs control in vivo at 10 mg/kg [2, 6] of 115% and a response vs control in vivo at 30 mg/kg [2, 7] of 16%. For the same compound, the response vs control in vivo at 30 mg/kg [2, 8] was 59%.
